Data reported in patent publication US11793824B2, “Administration of nicotinamide mononucleotide in the treatment of disease” (Washington University, priority 2013, dated 2023).

Test system: neurospheres (NSPCs)
Experiment: Microarray with parametric analysis of gene set enrichment (PAGE) of FK866-treated neurospheres
Type: cell-based, mouse
Experimental: For individual genes, raw microarray data were subjected to Z score transformation, and Z ratios were calculated as described previously (Cheadle et al, 2003). Subsequent analysis and Parametric Analysis of Gene Set Enrichment (PAGE) analysis was performed as previously described (Yoshino et al, 2011). The microarray data used in this study has been deposited into the NCBI GEO database (GEO accession number GSE49784).
The inventors investigated how inhibition of Nampt affects neurosphere proliferation. […] To distinguish whether this decrease in cell number was due to an inhibition of proliferation or enhancement of death, the inventors analyzed the protein levels of markers of proliferation, apoptosis, and autophagy. […] Parametric analysis of gene enrichment (PAGE) was conducted based on microarray analyses. See the Methods section. […] Data are presented as mean±s.e.m. *P<0.05. **P<0.01. ***P<0.001.

[1] = FK866 10 nM 48 hours, downregulated pathway
[2] = FK866 10 nM 48 hours, upregulated pathway

With `O=C(/C=C/c1cccnc1)NCCCCC1CCN(C(=O)c2ccccc2)CC1` [FK866] the “Z Ratio: BASE_EXCISION_REPAIR” value [1] was −4.3, the “Z Ratio: CELL_CYCLE_CHECKPOINT_GO_0000075” value [1] was −3.92 and the “Z Ratio: CELL_CYCLE_GO_0007049” value [1] was −4.63. For the same compound, the “Z Ratio: CELL_CYCLE_PHASE” value [1] was −4.23, the “Z Ratio: CELL_CYCLE_PROCESS” value [1] was −4.75 and the “Z Ratio: CHROMOSOMAL_PART” value [1] was −3.48. The “Z Ratio: CHROMOSOME” value [1] was −4.75, the “Z Ratio: CONDENSED_CHROMOSOME” value [1] was −3.57 and the “Z Ratio: CONDENSED_NUCLEAR_CHROMOSOME” value [1] was −3.36. For the same compound, the “Z Ratio: DNA_DEPENDENT_DNA_REPLICATION” value [1] was −6.07, the “Z Ratio: DNA_INTEGRITY_CHECKPOINT” value [1] was −3.2 and the “Z Ratio: DNA_METABOLIC_PROCESS” value [1] was −6.49. The “Z Ratio: DNA_RECOMBINATION” value [1] was −3.69, the “Z Ratio: DNA_REPAIR” value [1] was −5.98 and the “Z Ratio: DNA_REPLICATION” value [1] was −6.2. The “Z Ratio: DOUBLE_STRANDED_DNA_BINDING” value [1] was −3.95, the “Z Ratio: HYDROLASE_ACTIVITY_HYDROLYZING_N_GLYCOSYL_COMPOUNDS” value [1] was −3.63 and the “Z Ratio: INTERPHASE” value [1] was −3.28. The “Z Ratio: INTERPHASE_OF_MITOTIC_CELL_CYCLE” value [1] was −3.07, the “Z Ratio: INTRACELLULAR_NON_MEMBRANE_BOUND_ORGANELLE” value [1] was −3.46 and the “Z Ratio: INTRACELLULAR_ORGANELLE_PART” value [1] was −5.85. For the same compound, the “Z Ratio: MACROMOLECULAR_COMPLEX” value [1] was −4.14, the “Z Ratio: MEMBRANE_ENCLOSED_LUMEN” value [1] was −5.04 and the “Z Ratio: METHYLTRANSFERASE_ACTIVITY” value [1] was −3.3. For the same compound, the “Z Ratio: MITOTIC_CELL_CYCLE” value [1] was −3.48, the “Z Ratio: M_PHASE” value [1] was −3.67 and the “Z Ratio: NON_MEMBRANE_BOUND_ORGANELLE” value [1] was −3.46. The “Z Ratio: NUCLEAR_CHROMOSOME” value [1] was −4.11, the “Z Ratio: NUCLEAR_LUMEN” value [1] was −4.74 and the “Z Ratio: NUCLEAR_PART” value [1] was −7.07. For the same compound, the “Z Ratio: NUCLEOBASE_NUCLEOSIDE_AND_NUCLEOTIDE_METABOLIC_PROCESS” value [1] was −3.35, the “Z Ratio: NUCLEOBASE_NUCLEOSIDE_NUCLEOTIDE_AND_NUCLEIC_ACID” value [1] was −5.34 and the “Z Ratio: NUCLEOLUS” value [1] was −3.47. For the same compound, the “Z Ratio: NUCLEOPLASM” value [1] was −3.62, the “Z Ratio: NUCLEOTIDE_METABOLIC_PROCESS” value [1] was −3.21 and the “Z Ratio: NUCLEUS” value [1] was −5.95. For the same compound, the “Z Ratio: ORGANELLE_LUMEN” value [1] was −5.04, the “Z Ratio: ORGANELLE_PART” value [1] was −5.72 and the “Z Ratio: PROTEIN_COMPLEX” value [1] was −3.08. For the same compound, the “Z Ratio: REPLICATION_FORK” value [1] was −3.6, the “Z Ratio: RESPONSE_TO_DNA_DAMAGE_STIMULUS” value [1] was −5.8 and the “Z Ratio: RESPONSE_TO_ENDOGENOUS_STIMULUS” value [1] was −4.18. The “Z Ratio: RIBONUCLEOPROTEIN_COMPLEX” value [1] was −3.49, the “Z Ratio: RNA_BINDING” value [1] was −3.44 and the “Z Ratio: RNA_PROCESSING” value [1] was −4.32. The “Z Ratio: SINGLE_STRANDED_DNA_BINDING” value [1] was −3.17, the “Z Ratio: STRUCTURE_SPECIFIC_DNA_BINDING” value [1] was −4.08 and the “Z Ratio: TRANSFERASE_ACTIVITY_TRANSFERRING_ONE_CARBON_GROUPS” value [1] was −3.37. The “Z Ratio: TRNA_METABOLIC_PROCESS” value [1] was −3.76, the “Z Ratio: TRNA_PROCESSING” value [1] was −3.51 and the “Z Ratio: ACTIN_FILAMENT_BASED_PROCESS” value [2] was 3.18. The “Z Ratio: ANATOMICAL_STRUCTURE_DEVELOPMENT” value [2] was 4.47, the “Z Ratio: ANATOMICAL_STRUCTURE_MORPHOGENESIS” value [2] was 3.39 and the “Z Ratio: AXON_GUIDANCE” value [2] was 3.34. The “Z Ratio: CELL_DEVELOPMENT” value [2] was 3.44, the “Z Ratio: CELL_JUNCTION” value [2] was 3.29 and the “Z Ratio: CELL_MATRIX_ADHESION” value [2] was 3.18. For the same compound, the “Z Ratio: CELL_MATRIX_JUNCTION” value [2] was 3.20, the “Z Ratio: CELL_SUBSTRATE_ADHERENS_JUNCTION” value [2] was 3.17 and the “Z Ratio: CELL_SURFACE_RECEPTOR_LINKED_SIGNAL_TRANS-DUCTION_GO_000166” value [2] was 3.17. For the same compound, the “Z Ratio: CYTOSKELETAL_PROTEIN_BINDING” value [2] was 3.36, the “Z Ratio: EARLY_ENDOSOME” value [2] was 3.37 and the “Z Ratio: ENZYME_LINKED_RECEPTOR_PROTEIN_SIGNALING_PATHWAY” value [2] was 4.05. For the same compound, the “Z Ratio: EXTRACELLULAR_REGION” value [2] was 4.10, the “Z Ratio: EXTRACELLULAR_REGION_PART” value [2] was 3.82 and the “Z Ratio: EXTRACELLULAR_SPACE” value [2] was 3.66. For the same compound, the “Z Ratio: FOCAL_ADHESION” value [2] was 3.44, the “Z Ratio: FOCAL_ADHESION_FORMATION” value [2] was 3.83 and the “Z Ratio: GENERATION_OF_NEURONS” value [2] was 3.34. The “Z Ratio: Growth” value [2] was 3.85, the “Z Ratio: IDENTICAL_PROTEIN_BINDING” value [2] was 3.19 and the “Z Ratio: INTERMEDIATE_FILAMENT” value [2] was 3.61. The “Z Ratio: INTERMEDIATE_FILAMENT_CYTOSKELETON” value [2] was 3.61, the “Z Ratio: LIGAND_DEPENDENT_NUCLEAR_RECEPTOR_ACTIVITY” value [2] was 3.26 and the “Z Ratio: LIPID_HOMEOSTASIS” value [2] was 3.28. The “Z Ratio: MEMBRANE” value [2] was 3.55, the “Z Ratio: MESODERM_DEVELOPMENT” value [2] was 3.45 and the “Z Ratio: MULTICELLULAR_ORGANISMAL_DEVELOPMENT” value [2] was 4.64. For the same compound, the “Z Ratio: NEGATIVE_REGULATION_OF_GROWTH” value [2] was 3.84, the “Z Ratio: NERVOUS_SYSTEM_DEVELOPMENT” value [2] was 3.39 and the “Z Ratio: NEUROGENESIS” value [2] was 3.21. For the same compound, the “Z Ratio: NEURON_PROJECTION” value [2] was 3.62, the “Z Ratio: OLIGOSACCHARIDE_METABOLIC_PROCESS” value [2] was 3.82 and the “Z Ratio: ORGAN_DEVELOPMENT” value [2] was 4.28. The “Z Ratio: PDZ_DOMAIN_BINDING” value [2] was 3.26, the “Z Ratio: PHOSPHOINOSITIDE_BINDING” value [2] was 4.49 and the “Z Ratio: PLASMA_MEMBRANE” value [2] was 3.46. The “Z Ratio: POSITIVE_REGULATION_OF_SECRETION” value [2] was 3.51, the “Z Ratio: RECEPTOR_BINDING” value [2] was 4.25 and the “Z Ratio: REGULATION_OF_CELL_GROWTH” value [2] was 3.49. For the same compound, the “Z Ratio: REGULATION_OF_GROWTH” value [2] was 3.48, the “Z Ratio: REGULATION_OF_SIGNAL_TRANSDUCTION” value [2] was 3.77 and the “Z Ratio: SENSORY_PERCEPTION” value [2] was 3.57. For the same compound, the “Z Ratio: SIALYLTRANSFERASE_ACTIVITY” value [2] was 1.61, the “Z Ratio: SIGNAL_TRANSDUCTION” value [2] was 3.47 and the “Z Ratio: SYSTEM_DEVELOPMENT” value [2] was 4.69. For the same compound, the “Z Ratio: SYSTEM_PROCESS” value [2] was 3.74, the “Z Ratio: TASTE_RECEPTOR_ACTIVITY” value [2] was 3.36 and the “Z Ratio: TRANSMEMBRANE_RECEPTOR_PROTEIN_TYROSINE_KINASE_SIGNALING_PATH” value [2] was 3.18. The “Z Ratio: VACUOLE” value [2] was 3.19, the “number of the top 50 downregulated pathways related to the cell cycle” value (FK866-treated neurospheres) was 13 and the “top 50 upregulated pathways involved in cell death” value (FK866-treated neurospheres) was “none”.
